Read-outs that look alike come from different tables or passages of the source.
Columns and labels:
P2X2 receptor = target: T1, P2X2 receptor (Homo sapiens, UniProt Q9UBL9); conditions: Table 8, antagonists; cited from earlier work
T1 sequence (Q9UBL9 1-471): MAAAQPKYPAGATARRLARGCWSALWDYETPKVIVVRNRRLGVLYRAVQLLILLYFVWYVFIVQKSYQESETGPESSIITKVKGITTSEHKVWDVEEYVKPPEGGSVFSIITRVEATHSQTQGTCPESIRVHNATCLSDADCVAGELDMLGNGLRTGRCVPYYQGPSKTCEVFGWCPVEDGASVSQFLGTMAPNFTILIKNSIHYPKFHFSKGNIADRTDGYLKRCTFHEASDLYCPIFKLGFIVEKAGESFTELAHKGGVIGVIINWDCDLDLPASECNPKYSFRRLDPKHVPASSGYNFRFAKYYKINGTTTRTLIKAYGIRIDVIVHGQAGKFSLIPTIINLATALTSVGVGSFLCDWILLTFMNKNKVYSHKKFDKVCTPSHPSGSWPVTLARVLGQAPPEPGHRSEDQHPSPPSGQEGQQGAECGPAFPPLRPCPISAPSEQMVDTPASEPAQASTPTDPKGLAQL

EV71 [1] = assay: Inhibition of EV71 replication in RD cells at 0.1, 1, 10 and 100 μM (CPE, crystal violet); type: cell-based, Enterovirus 71
Method: Inhibitory effect of each P2X receptor antagonists and agonists on EV71 replication was measured at 0.1, 1, 10, and 100 μM. Specific procedures refer to “1” of Example 1. after infection, however, cells need to be incubated for 3˜4 days, stained with crystal violet, and observed under optical microscope to determine whether or not CPE (cytopathic effect) was present. In addition, the effect of compounds at each concentration on cytotoxicity to RD cells was determined. After culturing RD cells in various concentrations of compounds for 3˜4 days, stained with crystal violet, and observed under optical microscope to observe whether or not cell layer was damaged. Compounds capable of protecting cells from infection without damage of healthy cell layer can inhibit EV71 replication in RD cells.

P2X7 receptor = target: T2, P2X7 receptor (Homo sapiens, UniProt Q99572); conditions: Table 8, antagonists; cited from earlier work
T2 sequence (Q99572 1-595): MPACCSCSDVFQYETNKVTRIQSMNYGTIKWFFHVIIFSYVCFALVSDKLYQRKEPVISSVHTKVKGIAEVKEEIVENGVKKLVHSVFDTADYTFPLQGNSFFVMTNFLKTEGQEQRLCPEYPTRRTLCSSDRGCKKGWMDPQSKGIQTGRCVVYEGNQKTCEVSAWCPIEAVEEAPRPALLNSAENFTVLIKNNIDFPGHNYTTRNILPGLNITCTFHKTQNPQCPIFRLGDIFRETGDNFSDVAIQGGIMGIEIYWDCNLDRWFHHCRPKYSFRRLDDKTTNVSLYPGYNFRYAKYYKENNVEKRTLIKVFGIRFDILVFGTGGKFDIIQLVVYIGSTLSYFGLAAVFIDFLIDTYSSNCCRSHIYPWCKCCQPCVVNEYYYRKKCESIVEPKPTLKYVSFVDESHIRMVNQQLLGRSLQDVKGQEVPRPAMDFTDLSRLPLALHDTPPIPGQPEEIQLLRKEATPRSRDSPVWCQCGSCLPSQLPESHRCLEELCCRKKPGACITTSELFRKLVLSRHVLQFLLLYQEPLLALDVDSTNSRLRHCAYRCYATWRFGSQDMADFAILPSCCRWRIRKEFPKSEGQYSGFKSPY

P2X2/3 = P2X2/3 (Homo sapiens, UniProt P56373+Q9UBL9); conditions: Table 9, antagonists; cited from earlier work
EV71 [2] = assay: Effects of other antagonists and agonists on EV71 (Table 9); type: cell-based, Enterovirus 71; design: key: “NO” indicates there is negative
P2X3 receptor = target: T3, P2X3 receptor (Homo sapiens, UniProt P56373); conditions: cited from earlier work
T3 sequence (P56373 1-397): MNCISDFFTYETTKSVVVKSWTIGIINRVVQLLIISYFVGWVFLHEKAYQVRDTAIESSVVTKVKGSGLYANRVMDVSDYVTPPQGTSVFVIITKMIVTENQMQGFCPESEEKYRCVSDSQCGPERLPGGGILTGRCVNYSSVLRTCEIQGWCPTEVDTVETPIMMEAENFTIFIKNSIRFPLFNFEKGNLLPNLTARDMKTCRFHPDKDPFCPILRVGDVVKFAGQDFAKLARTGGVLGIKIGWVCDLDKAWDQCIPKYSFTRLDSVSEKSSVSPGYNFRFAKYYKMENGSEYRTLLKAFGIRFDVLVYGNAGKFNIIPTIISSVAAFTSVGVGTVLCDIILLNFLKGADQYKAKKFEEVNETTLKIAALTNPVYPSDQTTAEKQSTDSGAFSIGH

P2X5 receptor = P2X5 receptor (Homo sapiens, UniProt Q93086); conditions: Table 8, antagonists; cited from earlier work
P2X1 receptor = target: T4, P2X1 receptor (Homo sapiens, UniProt P51575); conditions: cited from earlier work
T4 sequence (P51575 1-399): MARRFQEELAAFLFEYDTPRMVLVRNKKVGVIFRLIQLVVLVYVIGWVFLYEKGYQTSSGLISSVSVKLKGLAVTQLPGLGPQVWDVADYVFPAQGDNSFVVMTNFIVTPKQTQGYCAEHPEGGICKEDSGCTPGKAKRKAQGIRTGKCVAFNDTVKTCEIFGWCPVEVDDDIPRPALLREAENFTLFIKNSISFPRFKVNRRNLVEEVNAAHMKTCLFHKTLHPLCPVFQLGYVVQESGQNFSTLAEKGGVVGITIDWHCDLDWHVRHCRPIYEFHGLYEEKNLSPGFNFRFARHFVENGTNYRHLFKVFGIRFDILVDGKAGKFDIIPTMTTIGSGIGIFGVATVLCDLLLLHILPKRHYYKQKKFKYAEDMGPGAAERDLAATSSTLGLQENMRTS

EV71 FY-23 = assay: EV71 infection of adult rhesus monkeys: blood viral load and body temperature; type: in vivo, rhesus monkey (Macaca); conditions: 50 mg/kg suramin i.v.
Description: 10 adult rhesus monkeys, which were detected negative for EV71 antibody (rhesus monkey (Macaca), Source: Institute of Medical Biology, Chinese Academy of Medical Sciences, Experimental animal use license number: SYXK (Yunnan) 2010-0009, Certification unit: Yunnan Provincial Science and Technology Agency), were randomly divided into two groups, namely: five in control group (aged about 4 years old, weighing about 5.3 kg, injected with physiological saline), 5 in treatment group (aged about 4.6 years old, weighs about 5.44 kg, injected with 50 mg/kg suramin). Multiple intravenous injections of suramin (50 mg/kg) were used. […] Specific experimental procedure is as follows:
Then, drug was administered intravenously at a dose (50 mg/kg suramin or physiological saline).
Intravenous viral challenge was performed with 4.5 lgCCID50 EV71 FY-23.
Whole blood RNA extraction: obtained 0.2 ml blood, added 0.8 ml TRNzol-A^+, after mixing, placed the well at room temperature for 10 min; added 0.2 ml chloroform, tightened cover lid, vigorously shaking for 15 sec, placed at room temperature for 5 min, centrifuged at 12500 rpm, 4° C., 20 min, 0.4 ml of aqueous phase was transferred to another fresh tube, equal volume of isopropanol was added, mixed, placed at room temperature for 30 min; centrifuged at 12500 rpm, 4° C., 20 min, supernatant was discarded, 1 ml of 75% ethanol was added to wash precipitates, centrifuged at 12500 rpm, 4° C., 30 min. Supernatant discarded, placed at room temperature for 30 min, RNA dried, 20 μl RNase-free ddH2O added, and RNA fully dissolved. Viral load was determined by measurement method as follows:
1) Standard dilutions: obtaining standards (performed according to TaKaRa MiniBEST Viral RNA/DNA extraction Kit Ver 3.0 instructions), 10 μl standards were obtained, 10-fold serial dilutions 10^6, 10^5, 10^4, 10^3, 10^2, 10^1, 10^0.
2) Primer sequences (Taqman probe method):
3) Preparing RT-PCR reaction solution (reaction solutions were prepared on ice):
4) Performing Real Time One Step RT-PCR.

P2Y1 = P2Y1 (Homo sapiens, UniProt P47900); conditions: Table 9, antagonists; cell names P2Y1; cited from earlier work
Chain of P2Y1 (P47900 whole entry, species assumed): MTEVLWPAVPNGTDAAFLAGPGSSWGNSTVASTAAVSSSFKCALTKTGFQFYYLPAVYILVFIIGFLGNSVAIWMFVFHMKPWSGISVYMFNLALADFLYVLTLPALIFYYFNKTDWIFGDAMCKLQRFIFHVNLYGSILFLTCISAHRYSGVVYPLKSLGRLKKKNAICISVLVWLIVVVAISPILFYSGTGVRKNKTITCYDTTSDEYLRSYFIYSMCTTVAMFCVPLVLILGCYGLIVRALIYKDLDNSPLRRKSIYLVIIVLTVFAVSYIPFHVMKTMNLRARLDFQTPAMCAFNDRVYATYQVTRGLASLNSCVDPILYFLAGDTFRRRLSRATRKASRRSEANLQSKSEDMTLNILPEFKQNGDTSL

Chain of P2X5 receptor (Q93086 whole entry): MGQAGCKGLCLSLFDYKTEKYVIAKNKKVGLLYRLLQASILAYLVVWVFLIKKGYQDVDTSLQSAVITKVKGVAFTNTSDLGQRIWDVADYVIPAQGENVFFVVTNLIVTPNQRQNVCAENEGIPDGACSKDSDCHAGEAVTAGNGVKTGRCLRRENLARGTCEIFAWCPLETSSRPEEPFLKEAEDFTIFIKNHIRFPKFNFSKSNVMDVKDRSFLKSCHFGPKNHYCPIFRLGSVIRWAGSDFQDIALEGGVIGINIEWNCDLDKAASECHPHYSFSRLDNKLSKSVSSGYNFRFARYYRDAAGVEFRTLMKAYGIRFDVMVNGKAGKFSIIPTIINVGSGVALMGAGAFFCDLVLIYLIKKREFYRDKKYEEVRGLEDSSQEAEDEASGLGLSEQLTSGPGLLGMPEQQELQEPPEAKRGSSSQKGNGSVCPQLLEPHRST

Compound	P2X receptors 2 (P2X2 receptor)	inhibition of EV71 replication (statement in words) (EV71 [1])	Inhibition of EV71 replication (EV71 [1]; Table 8, antagonists)	P2X receptors 7 (P2X7 receptor)	Heteromultimer (P2X2/3)	EV71 Log10 reduction (EV71 [2])	P2X receptors 3 (P2X3 receptor; Table 8, antagonists)	P2X receptors 3 (P2X3 receptor; Table 9, antagonists)	P2X receptors 5 (P2X5 receptor)	P2X receptors 1 (P2X1 receptor; Table 8, antagonists)	P2X receptors 1 (P2X1 receptor; Table 9, antagonists)	viral load compared with control group (EV71 FY-23; rhesus monkeys)	blood viral load of drug treatment group (average) (EV71 FY-23; 4th, 7th and 13th days after viral challenge, control peak 1-1.5×10^3 copies/ml)	body temperature after infection (EV71 FY-23; control group showed a rise 1 day after infection)	P2Y (P2Y1)
trinitrophenol-ATP [TNP-ATP]	+ (+: inhibitory concentration >300 nM)	can also inhibit EV71 replication	+ (+: inhibitory concentration >300 nM)	+ (+: inhibitory concentration >300 nM)	✓ ✓ ✓ (✓ ✓ ✓ activating concentration <10 nM)	NO	+++ (+++: inhibitory concentration <10 nM)	✓ ✓ ✓ (✓ ✓ ✓ activating concentration <10 nM)	+ (+: inhibitory concentration >300 nM)	+++ (+++: inhibitory concentration <10 nM)	✓ ✓ ✓ (✓ ✓ ✓ activating concentration <10 nM)				
COc1cc(Cc2cnc(N)nc2N)c(C(C)C)cc1OC [RO-3]					✓ P2X2/3 (✓ activating concentration >300 nM)	NO		✓ ✓ (✓ ✓ activating concentration 10 nM-300 nM)							
Cc1ccc(C(=O)Nc2ccc(S(=O)(=O)O)c3cc(S(=O)(=O)O)cc(S(=O)(=O)O)c23)cc1NC(=O)c1cccc(NC(=O)Nc2cccc(C(=O)Nc3cc(C(=O)Nc4ccc(S(=O)(=O)O)c5cc(S(=O)(=O)O)cc(S(=O)(=O)O)c45)ccc3C)c2)c1 [suramin, Suramin]												significantly lower	1.5×10^1 copies/ml	essentially maintained body temperatures within normal range	
CNc1ncnc2c1ncn2[C@H]1C[C@H](OP(=O)(O)O)[C@@H](COP(=O)(O)O)O1 [MRS 2179]						NO		✓ (✓ activating concentration >300 nM)			✓ (✓ activating concentration >300 nM)				✓ ✓ P2Y1 (✓ ✓ activating concentration 10 nM-300 nM)
